# Test results from ChEMBL document CHEMBL3132849, “Bioactive prenylated phenyl derivatives derived from marine natural products: novel scaffolds for the design of BACE inhibitors” (Medchemcomm, 2014).
# Several values for one entry are separate records, joined by “and”; a condition that tells them apart may be missing. Equal entries are not always repeated. Starred links: 1 amine or outer side, 2 acyl side, 3 side chain; linkers in the order of their positions; H or OH if unused. Non-standard residues stand in square brackets, D forms with d. Residues, ends and D or L forms follow the SMILES beside them. LeuΨ(S-CHOHCH2)Ala = CC(C)C[C@H](N[*:1])[C@@H](O)C[C@@H](C)C(=O)[*:2]
# Assays:
# [1] = target: Beta-secretase 1 (Homo sapiens) (UniProt P56817); experiment: Inhibition of recombinant human BACE1 using fluorogenic peptide 4 as substrate at 10 uM by FRET assay
# Sequence of Beta-secretase 1 (Homo sapiens) (P56817 whole entry): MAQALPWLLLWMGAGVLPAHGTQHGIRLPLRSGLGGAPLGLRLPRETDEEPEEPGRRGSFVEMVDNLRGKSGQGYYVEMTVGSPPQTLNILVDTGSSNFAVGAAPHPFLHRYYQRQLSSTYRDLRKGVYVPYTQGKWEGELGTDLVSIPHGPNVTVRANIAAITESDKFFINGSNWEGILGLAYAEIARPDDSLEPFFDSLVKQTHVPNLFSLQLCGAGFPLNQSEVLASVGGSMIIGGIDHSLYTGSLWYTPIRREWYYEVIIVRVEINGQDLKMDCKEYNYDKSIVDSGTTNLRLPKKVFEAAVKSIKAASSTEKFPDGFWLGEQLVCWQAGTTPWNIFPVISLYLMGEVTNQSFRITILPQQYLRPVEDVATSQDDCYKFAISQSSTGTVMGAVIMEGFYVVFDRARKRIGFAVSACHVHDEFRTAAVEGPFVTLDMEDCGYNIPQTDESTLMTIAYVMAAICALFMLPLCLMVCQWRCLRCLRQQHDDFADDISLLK
# [2] = target: Beta-secretase 1 (Homo sapiens) (UniProt P56817); experiment: Inhibition of BACE1 (unknown origin) expressed in human APP751 transfected CHO-7W cells assessed as inhibition of amyloid-beta (1 to 40) peptide production at 10 uM after 24 hrs by Abeta40 human ELISA Kit; type: cell-based
# [3] = target: Beta-secretase 1 (Homo sapiens) (UniProt P56817); experiment: Inhibition of recombinant human BACE1 using fluorogenic peptide 4 as substrate at 1 uM by FRET assay
# [4] = target: Beta-secretase 1 (Homo sapiens) (UniProt P56817); experiment: Inhibition of BACE1 (unknown origin) expressed in human APP751 transfected CHO-7W cells assessed as inhibition of amyloid-beta (1 to 40) peptide production at 1 uM after 24 hrs by Abeta40 human ELISA Kit; type: cell-based
# [5] = target: Beta-secretase 1 (Homo sapiens) (UniProt P56817); conditions: CHO-7W, 3 uM
# Description: Inhibition of BACE1 in human APP751 transfected CHO-7W cells assessed as inhibition of amyloid-beta (1 to 40) peptide production at 3 uM after 24 hrs by Abeta40 human ELISA Kit
# [6] = Cytotoxicity in human SH-SY5Y cells at 1 to 10 uM; type: cell-based
# [7] = target: Beta-secretase 1 (Homo sapiens) (UniProt P56817); experiment: Inhibition of recombinant human BACE1 assessed as fluorescence at 10 uM using FRET ASSAY KIT
# CHO = experiment: Cytotoxicity in Cricetulus griseus CHO cells expressing human APP751 at 10 uM; type: cell-based; conditions: chinese hamster
# [8] = target: Beta-secretase 1 (Homo sapiens) (UniProt P56817); experiment: Inhibition of recombinant human BACE1 assessed as fluorescence at 1 uM using FRET ASSAY KIT
SMILES,inhibition [1] [%],inhibition [2],inhibition [3],inhibition [4],inhibition [5] [%],Activity [6],inhibition [7] [%],Activity (CHO),inhibition [8] [%]
CCOC(=O)COc1ccc(C(=O)OC)cc1N(C/C=C(\C)CC/C=C(\C)CCC=C(C)C)CC(=O)OCC,0,36%,100%,14%,–,–,–,–,–
CC(C)C[C@H](NC(=O)[C@H](CC(N)=O)NC(=O)[C@@H](NC(=O)[C@@H](N)CCC(=O)O)C(C)C)[C@@H](O)C[C@@H](C)C(=O)N[C@@H](C)C(=O)N[C@@H](CCC(=O)O)C(=O)N[C@@H](Cc1ccccc1)C(=O)O (H-EVN[LeuΨ(S-CHOHCH2)Ala]AEF-OH),–,–,–,–,80,–,–,–,–
CCCS(=O)(=O)Oc1ccc(C(=O)O)cc1NC/C=C(\C)CC/C=C(\C)CCC=C(C)C,3,36%,93%,14%,–,–,–,–,–
COC(=O)c1ccc2c(c1)N(C/C=C(\C)CC/C=C(\C)CCC=C(C)C)C(=O)CO2,22,29%,59%,0%,–,–,–,–,–
COC(=O)c1ccc(OC)c(NC/C=C(\C)CC/C=C(\C)CCC=C(C)C)c1,68,29%,100%,0%,–,–,–,–,–
CC(C)=CCC/C(C)=C/CC/C(C)=C/Cc1cc(C(=O)O)ccc1O,5,–,100%,–,–,–,–,–,–
CC(C)=CCC/C(C)=C/CC/C(C)=C/CNc1cccc(C(=O)O)c1,25,–,89%,–,–,Toxic,–,–,–
COc1ccccc1NC/C=C(\C)CC/C=C(\C)CCC=C(C)C,64,0%,94%,–,–,–,–,–,–
CC(C)=CCC/C(C)=C/CC/C(C)=C/CNc1cc(C(=O)O)ccc1O,36,0%,100%,–,–,–,–,–,–
COC(=O)c1ccc(OC)c(NC[C@H](O)[C@@H](Cc2ccccc2)NC/C=C(\C)CCC=C(C)C)c1,–,–,–,3%,–,–,56,Toxic,100
COc1ccc(C(=O)O)cc1NC/C=C(\C)CC/C=C(\C)CCC=C(C)C,0,–,50%,31%,–,–,–,Toxic,–
CCCOc1ccc(C(=O)OC)cc1NC/C=C(\C)CC/C=C(\C)CCC=C(C)C,27,0%,88%,0%,–,–,–,–,–
COc1ccc(C(=O)N[C@@H](Cc2ccccc2)[C@H](O)CNC2CC2)cc1NC/C=C(\C)CC/C=C(\C)CCC=C(C)C,–,28%,–,10%,–,–,34,–,63
CC(C)=CCC/C(C)=C/CC/C(C)=C/CC/C(C)=C/Cc1cc(C(=O)O)ccc1O,0,30% and 47%,42% and 45%,8% and 10%,–,–,–,–,–
CC(C)=CCC/C(C)=C/CC/C(C)=C/CN1C(=O)COc2ccc(C(=O)O)cc21,17,0%,100%,0%,–,–,–,–,–
CC(=O)Oc1ccc(C(=O)O)cc1C/C=C(\C)CC/C=C(\C)CC/C=C(\C)CCC=C(C)C,17,–,87%,24%,–,–,–,Toxic,–
COC(=O)c1ccnc(NC/C=C(\C)CC/C=C(\C)CCC=C(C)C)c1,70,0%,100%,–,–,–,–,–,–
